Laboratory results published in ChEMBL document CHEMBL1201862, “PubChem BioAssay data set” (2004).
The source made the active and inactive calls.

Columns and labels:
[1] = cytotoxicity in HMLE control line with eGFP shRNA, dose response, counter-screen for HMLE_sh_ECad selective toxicity project, cell-based, HMLE_sh_eGFP, luminescence (AID 463074); type: functional, Homo sapiens;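 further: HMLE human mammary epithelial cells expressing control shRNA against eGFP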
[2] = Luminescence Cell-Based Dose Retest to Confirm Inhibitors of Cancer Stem Cells. [Related pubchem assays (depositor defined):AID2717, AID2721]; type: functional; conditions: Homo sapiens
[3] = biological target: T1, Nuclear receptor subfamily 0 group B member 1 (Homo sapiens, UniProt P51843); experiment: Luminescence-based cell-based high throughput dose response assay for inhibitors of the orphan nuclear receptor subfamily 0, group B, member 1 (DAX1; NR0B1). [Related pubchem assays (depositor defined):AID504766, AID504790]; type: functional
T1 sequence (P51843 whole entry): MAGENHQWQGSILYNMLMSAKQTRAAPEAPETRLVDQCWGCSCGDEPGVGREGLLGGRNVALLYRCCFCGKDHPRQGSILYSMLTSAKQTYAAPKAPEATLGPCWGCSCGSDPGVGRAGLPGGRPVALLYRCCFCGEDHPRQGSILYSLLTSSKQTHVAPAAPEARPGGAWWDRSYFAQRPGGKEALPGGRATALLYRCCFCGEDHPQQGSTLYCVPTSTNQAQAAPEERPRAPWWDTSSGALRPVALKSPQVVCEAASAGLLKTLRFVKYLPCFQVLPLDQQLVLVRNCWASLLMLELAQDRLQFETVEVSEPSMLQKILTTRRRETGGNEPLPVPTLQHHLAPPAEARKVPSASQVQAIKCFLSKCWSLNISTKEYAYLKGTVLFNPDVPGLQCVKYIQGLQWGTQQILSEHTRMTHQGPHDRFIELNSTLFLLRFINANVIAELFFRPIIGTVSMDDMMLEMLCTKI

HEK293 [4] = experiment: cells; type: functional, cell-based; conditions: Homo sapiens
HEK293 [5] = experiment: SAR Analysis of small molecule inhibitors of T-cell specific antigen receptor-induced NF-kB activation in a HEK-293T cell line using a luminescence assay - Set 2. [Related pubchem assays (depositor defined):AID435003, AID435012, AID489026]; type: functional, cell-based; conditions: Homo sapiens
HEK293 [6] = experiment: cytotoxicity in HEK293T NF-kB-Luc cells, SAR follow-up, cytotoxicity control for NF-kB activator project, cell-based, resazurin fluorescence (AID 493251); type: functional; conditions: Homo sapiens
Jurkat [7] = experiment: SAR Analysis of small molecule inhibitors of T-cell specific antigen receptor-induced NF-kB activation in a Jurkat cell line using a luminescence assay - Set 2. [Related pubchem assays (depositor defined):AID435003, AID435012, AID465]; type: functional, cell-based; conditions: Homo sapiens
[8] = biological target: Type-1 angiotensin II receptor (Homo sapiens, UniProt P30556); experiment: AT1 receptor antagonists, dose response, selectivity assay for APJ receptor antagonist project, cell-based, uHTS hits (AID 463214); type: functional;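 further: antagonist potency against angiotensin II stimulated AT1 response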
Chain of Type-1 angiotensin II receptor (P30556 whole entry): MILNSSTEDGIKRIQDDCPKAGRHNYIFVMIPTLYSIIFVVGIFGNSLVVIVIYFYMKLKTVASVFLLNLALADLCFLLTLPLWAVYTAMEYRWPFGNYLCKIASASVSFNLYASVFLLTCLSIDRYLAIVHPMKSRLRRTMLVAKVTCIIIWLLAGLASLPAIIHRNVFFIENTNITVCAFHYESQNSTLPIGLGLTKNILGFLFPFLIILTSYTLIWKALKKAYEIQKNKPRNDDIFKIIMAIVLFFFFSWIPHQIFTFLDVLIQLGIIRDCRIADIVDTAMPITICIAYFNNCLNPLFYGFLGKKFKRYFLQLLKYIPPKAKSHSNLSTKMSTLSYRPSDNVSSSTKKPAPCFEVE

[9] = biological target: T2, Corticotropin-releasing factor receptor 2/Corticotropin-releasing factor-binding protein (Homo sapiens, UniProt P24387+Q13324); experiment: activators of CRF receptor 2 with binding protein – uHTS hits, confirmation (AID 602473); type: functional; conditions: read-out: EC50_Mean
T2 sequence (Q13324 whole entry): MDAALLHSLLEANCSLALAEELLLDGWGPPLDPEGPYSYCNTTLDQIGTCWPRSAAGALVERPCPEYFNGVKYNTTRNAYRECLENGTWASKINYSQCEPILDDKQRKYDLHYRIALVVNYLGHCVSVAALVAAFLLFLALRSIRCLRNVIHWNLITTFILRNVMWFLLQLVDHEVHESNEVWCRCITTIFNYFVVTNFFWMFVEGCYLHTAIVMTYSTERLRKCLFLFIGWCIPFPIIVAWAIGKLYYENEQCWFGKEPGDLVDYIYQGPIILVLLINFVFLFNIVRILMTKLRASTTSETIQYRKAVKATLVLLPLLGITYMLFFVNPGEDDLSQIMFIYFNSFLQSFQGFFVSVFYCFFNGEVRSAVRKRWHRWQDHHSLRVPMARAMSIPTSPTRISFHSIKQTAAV
T2 sequence (P24387 whole entry): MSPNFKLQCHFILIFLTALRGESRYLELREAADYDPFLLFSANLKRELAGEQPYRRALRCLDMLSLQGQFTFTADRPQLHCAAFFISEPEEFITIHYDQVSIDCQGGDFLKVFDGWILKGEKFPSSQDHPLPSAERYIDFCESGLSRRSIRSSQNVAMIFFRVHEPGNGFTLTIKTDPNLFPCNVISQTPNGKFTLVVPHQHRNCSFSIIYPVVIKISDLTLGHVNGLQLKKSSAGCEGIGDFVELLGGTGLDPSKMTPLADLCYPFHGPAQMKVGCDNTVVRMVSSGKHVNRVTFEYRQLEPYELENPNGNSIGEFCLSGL

Beta-galactosidase = Beta-galactosidase (Escherichia coli, UniProt Q8VNN2); experiment: PubChem AID 485352; type: functional
Chain of Beta-galactosidase (Q8VNN2 whole entry): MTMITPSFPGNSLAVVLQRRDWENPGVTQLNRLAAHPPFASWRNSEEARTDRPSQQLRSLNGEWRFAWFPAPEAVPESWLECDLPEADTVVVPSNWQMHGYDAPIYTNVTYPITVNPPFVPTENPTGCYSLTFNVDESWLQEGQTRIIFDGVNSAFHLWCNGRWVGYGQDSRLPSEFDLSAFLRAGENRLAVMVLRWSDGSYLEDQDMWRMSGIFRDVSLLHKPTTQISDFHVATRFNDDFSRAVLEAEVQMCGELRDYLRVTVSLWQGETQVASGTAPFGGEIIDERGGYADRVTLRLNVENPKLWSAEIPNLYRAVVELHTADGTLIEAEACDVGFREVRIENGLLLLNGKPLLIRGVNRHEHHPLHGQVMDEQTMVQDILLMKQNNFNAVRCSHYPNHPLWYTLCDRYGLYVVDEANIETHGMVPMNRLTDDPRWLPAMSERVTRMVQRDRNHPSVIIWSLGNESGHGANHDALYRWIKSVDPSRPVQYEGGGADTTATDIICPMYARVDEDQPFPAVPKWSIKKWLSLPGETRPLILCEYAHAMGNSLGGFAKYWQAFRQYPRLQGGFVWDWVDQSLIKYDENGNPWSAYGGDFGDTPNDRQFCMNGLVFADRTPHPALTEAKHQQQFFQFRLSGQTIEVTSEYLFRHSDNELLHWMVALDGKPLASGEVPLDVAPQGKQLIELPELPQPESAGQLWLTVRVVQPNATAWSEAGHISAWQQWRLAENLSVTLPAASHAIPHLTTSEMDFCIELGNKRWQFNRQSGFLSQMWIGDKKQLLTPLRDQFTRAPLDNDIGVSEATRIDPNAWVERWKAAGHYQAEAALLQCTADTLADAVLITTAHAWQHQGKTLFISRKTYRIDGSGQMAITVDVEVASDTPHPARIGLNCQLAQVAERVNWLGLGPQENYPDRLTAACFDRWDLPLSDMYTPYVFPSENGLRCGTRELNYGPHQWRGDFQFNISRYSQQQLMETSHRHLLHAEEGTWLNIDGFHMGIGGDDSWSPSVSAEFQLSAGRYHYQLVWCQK

[10] = biological target: T2, Corticotropin-releasing factor receptor 2/Corticotropin-releasing factor-binding protein; experiment: Dose Response confirmation of uHTS hits for small molecule antagonists of the CRF-binding protein and CRF-R2 receptor complex.; type: functional; conditions: read-out: IC50_Mean
[11] = A549 cell cytotoxicity, dose response, cytotoxicity control, plate reader, cherry-pick, antagonist series (AID 743412); type: functional, cell-based
[12] = cytotoxicity in HEK-293T NF-kB-Luc cells, dose response, cytotoxicity control for B/T-cell NF-kB inhibitor project, cell-based, uHTS hits (AID 489019); type: functional;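 further: IC50 reflects cytotoxicity as loss of cell viability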
[13] = inhibitors of clade B AD8 Env fusion, dose response, cell-based, cherry-pick (AID 652062); type: functional;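 further: luciferase signal from cell-cell fusion driven by HIV-1 clade B AD8 Env; potency is for inhibitors of fusion seen as a drop in luminescence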
[14] = biological target: T3, Microphthalmia-associated transcription factor (Homo sapiens, UniProt O75030); experiment: TRPM1 promoter luciferase signal decrease, dose response, MITF inhibitor project, cell-based, SK-MEL-5, cherry-picked, set 3 (AID 493073); type: functional
T3 sequence (O75030 whole entry): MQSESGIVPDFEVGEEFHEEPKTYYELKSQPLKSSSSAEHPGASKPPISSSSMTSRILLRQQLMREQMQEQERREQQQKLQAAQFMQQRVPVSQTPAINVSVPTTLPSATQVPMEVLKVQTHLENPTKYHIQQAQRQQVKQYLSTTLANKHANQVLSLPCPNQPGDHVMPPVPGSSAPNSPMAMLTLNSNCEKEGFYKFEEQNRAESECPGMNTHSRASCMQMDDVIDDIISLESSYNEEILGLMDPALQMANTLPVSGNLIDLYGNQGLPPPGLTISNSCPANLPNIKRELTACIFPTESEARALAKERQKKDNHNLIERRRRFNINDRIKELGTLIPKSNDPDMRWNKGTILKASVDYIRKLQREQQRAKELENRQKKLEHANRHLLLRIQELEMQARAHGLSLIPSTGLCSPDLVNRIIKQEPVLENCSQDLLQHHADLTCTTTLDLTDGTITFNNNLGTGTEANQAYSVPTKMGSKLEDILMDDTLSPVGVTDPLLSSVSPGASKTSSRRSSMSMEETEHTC

Jurkat [15] = experiment: antigen receptor-induced NF-kB inhibitors, dose response, Jurkat, luciferase reporter, luminescence, B- and T-cell (AID 489004); type: functional, cell-based; conditions: Homo sapiens;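 further: NF-kB luciferase reporter Jurkat cells stimulated with PMA plus ionomycin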
[16] = off-target signal loss in HeLa-CEM21 co-culture – HeLa F-luc CTL cells, cherry-picked, counter-screen for HIV-1 Env fusion inhibitor project, dose response (AID 652040); type: functional, cell-based;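 further: potency for signal decrease marking cytotoxic or nonspecific inhibition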
Procathepsin L = Procathepsin L (Homo sapiens, UniProt P07711); experiment: cathepsin L inhibitors, dose response, counter-screen for M1/M17 aminopeptidase inhibitor project, biochemical, QFRET, 1536-well (AID 2214)
Chain of Procathepsin L (P07711 whole entry): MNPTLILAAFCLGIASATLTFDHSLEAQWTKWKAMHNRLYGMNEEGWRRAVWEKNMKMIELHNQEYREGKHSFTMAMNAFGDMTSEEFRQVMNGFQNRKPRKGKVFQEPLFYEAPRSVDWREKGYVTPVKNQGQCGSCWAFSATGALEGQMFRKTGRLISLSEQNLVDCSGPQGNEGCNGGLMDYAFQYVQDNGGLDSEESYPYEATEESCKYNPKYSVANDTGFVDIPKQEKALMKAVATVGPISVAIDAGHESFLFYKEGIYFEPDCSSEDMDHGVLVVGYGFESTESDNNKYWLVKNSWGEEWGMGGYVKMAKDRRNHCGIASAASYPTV

Aspartyl aminopeptidase = biological target: T4, Aspartyl aminopeptidase (Plasmodium falciparum 3D7, UniProt Q8I2J3); experiment: Counterscreen for inhibitors of M1 and M17 aminopeptidases: QFRET-based biochemical high throughput dose response assay for inhibitors of the Plasmodium falciparum M18 Aspartyl Aminopeptidase (PFM18AAP). [Related PubChem assays: 1619 (Screening assay (M17LAP inhibitors).), 1445 (Screening assay (M1AAP inhibitors).)]
T4 sequence (Q8I2J3 whole entry): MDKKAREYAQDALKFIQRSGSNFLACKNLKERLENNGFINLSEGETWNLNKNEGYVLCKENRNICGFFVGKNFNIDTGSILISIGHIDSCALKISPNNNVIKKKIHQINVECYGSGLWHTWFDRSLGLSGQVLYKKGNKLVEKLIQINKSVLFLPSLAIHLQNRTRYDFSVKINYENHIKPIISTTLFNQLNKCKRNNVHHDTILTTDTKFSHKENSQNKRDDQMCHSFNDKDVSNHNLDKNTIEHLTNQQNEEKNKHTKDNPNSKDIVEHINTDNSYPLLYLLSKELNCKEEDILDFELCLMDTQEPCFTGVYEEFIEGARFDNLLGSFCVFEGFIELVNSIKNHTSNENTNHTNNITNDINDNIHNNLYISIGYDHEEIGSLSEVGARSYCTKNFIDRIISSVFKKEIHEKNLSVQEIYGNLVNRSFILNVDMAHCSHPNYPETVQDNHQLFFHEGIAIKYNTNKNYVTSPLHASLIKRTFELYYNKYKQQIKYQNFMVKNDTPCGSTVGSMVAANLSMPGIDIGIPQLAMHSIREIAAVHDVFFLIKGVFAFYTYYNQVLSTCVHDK

[17] = LGR2 antagonists, dose response, cell-based, HEK293, CRE-luciferase reporter, cherry pick, set 2 (AID 743343); type: functional;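 further: transfected cells were stimulated with diluted bursicon conditioned medium after compound addition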
[18] = inhibitors of HIV Env-driven cell fusion, dose response, cherry-pick (AID 652057); type: functional, cell-based
Leucine aminopeptidase = biological target: T5, Leucine aminopeptidase (Plasmodium falciparum 3D7, UniProt Q8IL11); experiment: P. falciparum M17LAP inhibitors, primary screen, biochemical, fluorogenic H-Leu-NHMec substrate, 1536-well (AID 1619); type: functional
T5 sequence (Q8IL11 whole entry): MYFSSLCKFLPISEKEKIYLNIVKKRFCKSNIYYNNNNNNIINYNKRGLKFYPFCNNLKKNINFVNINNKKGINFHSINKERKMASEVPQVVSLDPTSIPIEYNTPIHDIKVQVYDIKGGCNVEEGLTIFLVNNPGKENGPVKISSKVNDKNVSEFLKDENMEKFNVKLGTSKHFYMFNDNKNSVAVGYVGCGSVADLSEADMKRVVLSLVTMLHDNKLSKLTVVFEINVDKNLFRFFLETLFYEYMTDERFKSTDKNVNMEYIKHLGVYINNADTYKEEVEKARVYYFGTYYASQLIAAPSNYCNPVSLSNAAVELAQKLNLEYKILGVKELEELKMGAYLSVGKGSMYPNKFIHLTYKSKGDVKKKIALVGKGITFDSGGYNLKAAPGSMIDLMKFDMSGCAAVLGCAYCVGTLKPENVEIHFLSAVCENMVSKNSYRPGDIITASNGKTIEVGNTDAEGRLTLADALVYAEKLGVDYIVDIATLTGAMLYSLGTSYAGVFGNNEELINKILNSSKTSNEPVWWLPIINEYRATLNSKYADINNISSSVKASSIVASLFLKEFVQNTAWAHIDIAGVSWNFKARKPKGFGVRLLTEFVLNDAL

[19] = MC4R antagonists, dose response, counter-screen for LGR2 antagonist project, cell-based, plate reader, cherry pick (AID 743444); type: functional;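 further: transfected HEK 293 cells stimulated with alpha-MSH peptide; potency of inhibitors of the alpha-MSH evoked signal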

Question: Which results are given for `CCCOc1ccc(C(=O)N2CCN(c3ccc(N)cc3Cl)CC2)cc1`?
Answer: AC50 [1]: 47.8 µM (active); AC50 [2]: 10.1 µM (active)

Question: What does the source list for `Cc1nn(-c2ccccc2)c(Cl)c1C(=O)N1CCN(C)CC1`?
Answer: IC50 [3]: > 67.5 µM (inactive); IC50 (HEK293 [4]): > 67.5 µM (inactive)

Question: With `CCC(=O)NC(c1ccc(N(C)C)cc1)c1ccc2cccnc2c1O` (centres undefined) as the compound, how does the IC50 (HEK293 [5]) read?
Answer: Its IC50 is 7 µM (active).

Question: And the IC50 (HEK293 [6])?
Answer: The IC50 was 18.4 µM (active).

Question: And the IC50 (Jurkat [7])?
Answer: The IC50 was 2.67 µM (active).

Question: With `COc1ccc(C(NC(=O)CC(C)C)c2ccc3cccnc3c2O)cc1OC` (centres undefined) as the compound, how does the IC50 (HEK293 [5]) read?
Answer: Its IC50 is 6.6 µM (active).

Question: What about the IC50 (HEK293 [6]) of the same compound?
Answer: Its IC50 is 20.1 µM (inactive).

Question: And the IC50 (Jurkat [7])?
Answer: The IC50 was 5.48 µM (active).

Question: Which AC50 [1] does the source give for `COc1ccc(N=C(S)N(C)N=C(S)Nc2ccc(OC)cc2)cc1` here?
Answer: Its AC50 is 22 µM (active).

Question: What about the AC50 [2] of the same compound?
Answer: Its AC50 is 16.3 µM (active).

Question: Which results are given for `Cc1ccc(NC(=O)c2ccccc2F)c(NC(=O)c2ccccc2F)c1`?
Answer: IC50 [3]: > 67.5 µM (inactive); IC50 (HEK293 [4]): > 67.5 µM (inactive)

Question: What does the source list for `ON1C(c2ccc(Cl)cc2Cl)N(O)[C@H]2CCCC[C@H]21` (some centres undefined)?
Answer: IC50 [8]: 17.7 µM (active); EC50 [9]: > 53 µM (inactive); EC50 (Beta-galactosidase): > 40 µM (inactive); IC50 [10]: > 47.1 µM (inactive)

Question: Which IC50 [8] does the source give for `CC(C(=O)OCC(=O)c1cccc([N+](=O)[O-])c1)N1C(=O)C2C3CCC(C3)C2C1=O` (centres undefined) here?
Answer: The IC50 was 24.4 µM (not active).

Question: And the EC50 (Beta-galactosidase)?
Answer: Its EC50 is > 40 µM (inactive).

Question: Which results are given for `O=C(Nc1ccc(Cl)cc1)Nc1cccc(C(=O)O)c1`?
Answer: AC50 [11]: > 52 µM (inactive); IC50 [12]: > 80 µM (inactive); AC50 [13]: 2.51 µM (active); AC50 [14]: 3.79 µM (active); IC50 (Jurkat [15]): 3.35 µM (active); AC50 [16]: 2.95 µM (active); IC50 (Procathepsin L): > 59.6 µM (not active); IC50 (Aspartyl aminopeptidase): > 73.5 µM (not active); AC50 [17]: 2.93 µM (active); AC50 [18]: 2.22 µM (active); IC50 (Leucine aminopeptidase): < 1 µM (active); AC50 [19]: 1.88 µM (active)

Question: Which IC50 [12] does the source give for `CC(C)(O)c1[nH]c2ccc(C#N)cc2c1C(C)(C)O` here?
Answer: Its IC50 is > 80 µM (inactive).

Question: And the IC50 (Jurkat [15])?
Answer: Its IC50 is > 80 µM (inactive).
